Measured values from patent US6689383B1, “Chromium-histidine complexes as nutrient supplements” (The United States of America as represented by the …, priority 1999, dated 2004).
Like-named read-outs stand apart in the source and are kept apart here. Marks after values point to notes of the source that are not given here.

Tests used:
[1] = chromium picolinate: at intakes up to 1000 μg per day; cited from earlier work
[2] = Chromium absorption in humans based on urinary chromium excretion
Method: Experiments were carried out to investigate the efficacy of chromium-histidine complexes in the absorption process. Chromium was administered in the formulations listed in Table 1 at dosages of 200 μg chromium to three adult males and three females, and absorption during the first 24 hours was measured based on urinary chromium excretion.

[3] = Stability; type: physicochemical; details: aqueous solutions
[4] = Water solubility; type: physicochemical
[5] = system: steroid-induced diabetes; details: 600 μg of chromium per day for 2 weeks followed by daily maintenance dose of 200 μg; cited from earlier work
[6] = system: insulin sensitivity; details: 1000 μg daily of supplemental chromium, obese subjects with family history of diabetes; cited from earlier work
[7] = system: hemoglobin A1C; details: type 2 diabetes, cited from earlier work

## [Cl][Cr]([Cl])[Cl] [Chromium chloride]
[1]
  Absorption of chromium: approximately 0.4%
[2]; first 24 hours following intake of 200 μg of chromium, based on urinary chromium excretion, 3 adult males and 3 females
  μGRAMS ABSORBED (chromium absorbed): 0.44 ± 0.07^b μGRAMS

## N[C@@H](Cc1c[nH]cn1)C(=O)O.[Cr] [Chromium histidine]
[3]
  Stability: stable in aqueous solutions
[4]
  Water solubility: water-soluble
[2]; 200 μg chromium, first 24 hours, urinary chromium excretion
  Absorption level relative to chromium picolinate: almost twice

## Chromium picolinate
[5]
  People whose steroid-induced diabetes improved to acceptable levels: 47 of 50
[6]
  Insulin sensitivity: improved
[7]; 200 μg chromium per day for 4 months
  Hemoglobin A1C: 7.5±0.2%
[7]; 1000 μg of chromium per day for 4 months
  Hemoglobin A1C: 6.6±0.1%
